Experimental data taken from patent US20240400577A1, “MODULATORS OF PROTEIN KINASES” (VIBLIOME THERAPEUTICS, LLC, priority 2021, published 2024).

Experiments:
Experiment in all cases: Kinase panel enzymatic inhibition assay (Nanosyn)
Assay type in all cases: biochemical
Details in all cases: compound 5 μM; ATP at Km; 30-minute pre-incubation
LYNb = molecular target: T1, LYNb (Homo sapiens, UniProt P07948)
T1 construct: purchased Nanosyn (contract screening)
How it was run: (§1)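 Enzymatic inhibition measured within a panel of at least 300 kinases, using a validated format such as Caliper LabChip mobility shift, ADP detection or time-resolved fluorescence. Compounds tested at 5 μM with ATP at each kinase's Km, after a 30-minute pre-incubation. Values given as percent inhibition or IC50.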

HGK = molecular target: T2, HGK (Homo sapiens, UniProt O95819)
T2 construct: purchased Nanosyn (contract screening)
How it was run: as §1

TAOK2 = molecular target: T3, TAOK2 (Homo sapiens, UniProt Q9UL54)
T3 construct: Nanosyn (contract laboratory that ran the panel)
T3 sequence (Q9UL54 1-1235): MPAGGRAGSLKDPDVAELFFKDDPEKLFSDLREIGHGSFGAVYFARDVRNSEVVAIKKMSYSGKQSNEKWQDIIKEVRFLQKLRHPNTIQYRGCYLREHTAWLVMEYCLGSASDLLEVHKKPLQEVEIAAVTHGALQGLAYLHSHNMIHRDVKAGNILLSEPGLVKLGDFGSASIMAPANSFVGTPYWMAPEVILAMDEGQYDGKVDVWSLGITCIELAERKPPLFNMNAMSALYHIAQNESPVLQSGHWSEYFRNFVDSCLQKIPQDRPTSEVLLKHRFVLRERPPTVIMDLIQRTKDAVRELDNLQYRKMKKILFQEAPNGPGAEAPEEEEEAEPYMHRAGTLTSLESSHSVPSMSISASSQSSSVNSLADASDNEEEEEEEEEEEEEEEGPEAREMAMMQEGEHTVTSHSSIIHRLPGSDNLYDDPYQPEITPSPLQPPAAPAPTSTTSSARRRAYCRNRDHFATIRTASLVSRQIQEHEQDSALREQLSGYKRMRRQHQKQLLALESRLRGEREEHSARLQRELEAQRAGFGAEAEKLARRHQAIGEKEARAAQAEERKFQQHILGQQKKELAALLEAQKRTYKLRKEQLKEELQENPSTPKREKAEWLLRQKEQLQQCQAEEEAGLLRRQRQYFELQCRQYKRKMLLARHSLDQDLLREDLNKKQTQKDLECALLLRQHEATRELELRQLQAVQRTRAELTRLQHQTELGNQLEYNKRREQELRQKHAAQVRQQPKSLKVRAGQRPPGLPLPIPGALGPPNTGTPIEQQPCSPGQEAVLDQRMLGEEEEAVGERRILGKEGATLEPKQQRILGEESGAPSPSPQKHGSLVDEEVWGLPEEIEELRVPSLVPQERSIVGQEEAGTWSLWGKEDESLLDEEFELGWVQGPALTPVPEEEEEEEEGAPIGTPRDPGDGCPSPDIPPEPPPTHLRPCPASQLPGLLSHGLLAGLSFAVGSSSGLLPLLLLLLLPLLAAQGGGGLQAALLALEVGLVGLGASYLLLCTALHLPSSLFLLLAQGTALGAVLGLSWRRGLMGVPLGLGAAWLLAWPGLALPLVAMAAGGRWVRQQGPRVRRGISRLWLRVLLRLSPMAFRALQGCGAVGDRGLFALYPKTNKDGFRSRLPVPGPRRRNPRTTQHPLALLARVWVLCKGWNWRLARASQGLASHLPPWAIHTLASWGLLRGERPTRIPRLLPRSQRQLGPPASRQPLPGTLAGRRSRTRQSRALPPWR
How it was run: as §1

YES = molecular target: T4, YES (Homo sapiens, UniProt P07947)
T4 construct: Nanosyn (contract laboratory that ran the panel)
How it was run: as §1

MNK2 = molecular target: T5, MNK2 (Homo sapiens, UniProt Q9HBH9)
T5 construct: Nanosyn (contract laboratory that ran the panel)
How it was run: as §1

KIT = molecular target: T6, KIT (Homo sapiens, UniProt P10721)
T6 construct: purchased Nanosyn (contract screening)
T6 sequence (P10721 26-976): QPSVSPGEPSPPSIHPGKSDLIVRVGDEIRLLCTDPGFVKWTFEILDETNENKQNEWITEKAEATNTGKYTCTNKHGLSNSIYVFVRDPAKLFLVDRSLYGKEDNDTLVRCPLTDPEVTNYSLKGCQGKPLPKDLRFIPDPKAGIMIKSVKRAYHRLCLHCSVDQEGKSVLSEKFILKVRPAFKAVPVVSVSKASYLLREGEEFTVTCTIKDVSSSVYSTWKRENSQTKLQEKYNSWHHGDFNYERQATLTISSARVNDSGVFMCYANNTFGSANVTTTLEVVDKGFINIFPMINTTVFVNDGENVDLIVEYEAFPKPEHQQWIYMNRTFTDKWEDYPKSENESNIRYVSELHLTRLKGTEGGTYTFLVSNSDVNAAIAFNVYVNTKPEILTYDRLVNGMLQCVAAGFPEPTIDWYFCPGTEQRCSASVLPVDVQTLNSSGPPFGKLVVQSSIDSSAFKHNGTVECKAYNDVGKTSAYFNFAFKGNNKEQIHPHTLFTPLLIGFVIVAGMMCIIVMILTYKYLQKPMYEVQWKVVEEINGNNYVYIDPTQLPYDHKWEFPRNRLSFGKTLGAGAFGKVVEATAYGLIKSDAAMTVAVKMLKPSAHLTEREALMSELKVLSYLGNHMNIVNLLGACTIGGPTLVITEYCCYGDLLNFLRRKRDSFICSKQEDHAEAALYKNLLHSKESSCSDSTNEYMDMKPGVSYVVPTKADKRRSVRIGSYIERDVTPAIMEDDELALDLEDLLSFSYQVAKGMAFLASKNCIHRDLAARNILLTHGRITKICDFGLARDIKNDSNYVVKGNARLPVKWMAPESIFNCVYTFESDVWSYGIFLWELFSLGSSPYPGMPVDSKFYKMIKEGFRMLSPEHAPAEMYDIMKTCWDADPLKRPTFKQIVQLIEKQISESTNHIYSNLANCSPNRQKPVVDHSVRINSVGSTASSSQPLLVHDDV
How it was run: as §1

p38b = molecular target: T7, p38b (Homo sapiens, UniProt Q15759)
T7 construct: Nanosyn (contract laboratory that ran the panel)
T7 sequence (Q15759 whole entry): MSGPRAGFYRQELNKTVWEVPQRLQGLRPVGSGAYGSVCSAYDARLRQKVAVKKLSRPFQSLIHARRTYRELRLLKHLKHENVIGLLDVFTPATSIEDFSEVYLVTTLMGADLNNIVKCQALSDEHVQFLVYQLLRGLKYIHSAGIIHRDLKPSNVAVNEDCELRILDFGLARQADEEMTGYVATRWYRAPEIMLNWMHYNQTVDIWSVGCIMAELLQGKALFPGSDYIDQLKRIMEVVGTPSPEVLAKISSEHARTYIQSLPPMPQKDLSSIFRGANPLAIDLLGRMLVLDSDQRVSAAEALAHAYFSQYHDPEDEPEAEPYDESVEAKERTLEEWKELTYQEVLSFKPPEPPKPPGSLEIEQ
How it was run: as §1

KDR = molecular target: T8, KDR (Homo sapiens, UniProt P35968)
T8 construct: purchased Nanosyn (contract screening)
How it was run: as §1

PDGFRa = molecular target: T9, PDGFRa (Homo sapiens, UniProt P16234)
T9 construct: Nanosyn (contract laboratory that ran the panel)
T9 sequence (P16234 24-1089): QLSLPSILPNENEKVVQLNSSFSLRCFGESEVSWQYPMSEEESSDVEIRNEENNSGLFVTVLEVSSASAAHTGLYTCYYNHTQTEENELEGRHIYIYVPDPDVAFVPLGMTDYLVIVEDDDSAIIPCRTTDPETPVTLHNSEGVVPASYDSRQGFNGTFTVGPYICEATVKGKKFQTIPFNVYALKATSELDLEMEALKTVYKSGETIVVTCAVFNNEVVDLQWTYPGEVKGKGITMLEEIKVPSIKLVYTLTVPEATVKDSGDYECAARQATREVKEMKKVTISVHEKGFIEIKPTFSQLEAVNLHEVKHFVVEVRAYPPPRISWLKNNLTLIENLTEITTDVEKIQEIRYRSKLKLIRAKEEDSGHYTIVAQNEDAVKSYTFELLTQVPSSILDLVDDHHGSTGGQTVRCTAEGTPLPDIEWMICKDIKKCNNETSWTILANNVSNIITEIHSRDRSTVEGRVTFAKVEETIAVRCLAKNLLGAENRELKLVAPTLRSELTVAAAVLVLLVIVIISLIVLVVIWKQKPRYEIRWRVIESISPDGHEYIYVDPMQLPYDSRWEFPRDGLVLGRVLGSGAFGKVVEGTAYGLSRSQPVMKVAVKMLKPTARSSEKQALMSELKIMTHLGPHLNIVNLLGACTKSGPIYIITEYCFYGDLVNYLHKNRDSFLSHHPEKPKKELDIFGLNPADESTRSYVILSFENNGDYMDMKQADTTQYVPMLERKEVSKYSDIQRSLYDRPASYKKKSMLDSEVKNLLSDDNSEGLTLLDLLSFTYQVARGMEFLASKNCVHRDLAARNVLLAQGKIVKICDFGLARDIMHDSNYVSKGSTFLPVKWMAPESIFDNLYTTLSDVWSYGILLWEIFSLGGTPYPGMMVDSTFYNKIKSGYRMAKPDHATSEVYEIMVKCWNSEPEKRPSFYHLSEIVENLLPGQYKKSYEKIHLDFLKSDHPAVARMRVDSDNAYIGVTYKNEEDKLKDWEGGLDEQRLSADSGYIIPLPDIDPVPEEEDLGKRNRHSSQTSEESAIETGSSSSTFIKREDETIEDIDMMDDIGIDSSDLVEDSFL
How it was run: as §1

CSF1R = molecular target: T10, CSF1R (Homo sapiens, UniProt P07333)
T10 construct: purchased Nanosyn (contract screening)
T10 sequence (P07333 20-972): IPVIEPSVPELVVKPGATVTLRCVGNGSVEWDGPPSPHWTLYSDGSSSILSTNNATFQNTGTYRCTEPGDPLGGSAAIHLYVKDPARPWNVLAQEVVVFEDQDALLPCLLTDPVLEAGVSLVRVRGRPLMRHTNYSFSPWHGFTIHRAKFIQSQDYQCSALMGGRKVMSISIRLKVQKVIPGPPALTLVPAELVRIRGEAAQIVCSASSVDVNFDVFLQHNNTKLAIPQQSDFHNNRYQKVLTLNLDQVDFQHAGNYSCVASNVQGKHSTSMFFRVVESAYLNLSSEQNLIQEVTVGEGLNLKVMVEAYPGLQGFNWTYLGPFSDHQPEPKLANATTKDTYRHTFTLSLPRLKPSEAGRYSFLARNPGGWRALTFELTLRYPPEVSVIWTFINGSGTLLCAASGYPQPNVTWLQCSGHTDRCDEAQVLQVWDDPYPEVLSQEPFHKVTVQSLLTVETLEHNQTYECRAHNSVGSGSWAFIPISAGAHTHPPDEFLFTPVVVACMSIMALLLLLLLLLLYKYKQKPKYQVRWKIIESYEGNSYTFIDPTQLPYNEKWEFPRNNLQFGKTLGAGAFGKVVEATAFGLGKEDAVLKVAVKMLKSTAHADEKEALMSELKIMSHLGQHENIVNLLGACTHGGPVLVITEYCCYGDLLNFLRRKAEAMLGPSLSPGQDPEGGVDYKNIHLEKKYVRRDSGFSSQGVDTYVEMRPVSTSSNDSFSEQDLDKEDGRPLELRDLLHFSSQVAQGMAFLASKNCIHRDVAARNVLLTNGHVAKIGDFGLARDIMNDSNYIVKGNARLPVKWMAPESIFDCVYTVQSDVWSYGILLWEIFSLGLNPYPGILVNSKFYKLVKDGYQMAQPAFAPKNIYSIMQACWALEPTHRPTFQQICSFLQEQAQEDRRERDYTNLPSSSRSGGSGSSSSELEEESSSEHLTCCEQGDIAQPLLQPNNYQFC
How it was run: as §1

LCK = molecular target: T11, LCK (Homo sapiens, UniProt P06239)
T11 construct: purchased Nanosyn (contract screening)
T11 sequence (P06239 whole entry): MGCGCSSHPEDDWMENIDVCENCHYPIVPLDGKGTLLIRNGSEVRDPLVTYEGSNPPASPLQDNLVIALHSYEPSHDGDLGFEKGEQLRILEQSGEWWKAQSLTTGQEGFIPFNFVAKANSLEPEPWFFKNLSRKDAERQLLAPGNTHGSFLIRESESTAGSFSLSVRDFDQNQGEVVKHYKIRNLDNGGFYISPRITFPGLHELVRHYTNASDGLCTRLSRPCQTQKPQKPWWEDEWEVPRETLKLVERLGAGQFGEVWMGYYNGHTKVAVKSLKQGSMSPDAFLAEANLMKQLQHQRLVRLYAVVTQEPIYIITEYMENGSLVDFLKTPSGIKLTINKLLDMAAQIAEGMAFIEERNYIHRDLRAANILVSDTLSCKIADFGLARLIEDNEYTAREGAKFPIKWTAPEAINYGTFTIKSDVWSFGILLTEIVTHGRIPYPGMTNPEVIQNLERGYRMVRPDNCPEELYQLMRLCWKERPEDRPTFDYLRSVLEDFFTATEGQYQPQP
How it was run: as §1

ERBB4 = molecular target: T12, ERBB4 (Homo sapiens, UniProt Q15303)
T12 construct: purchased Nanosyn (contract screening)
How it was run: as §1

ZAK = molecular target: T13, ZAK (Homo sapiens, UniProt Q9NYL2)
T13 construct: Nanosyn (contract laboratory that ran the panel)
How it was run: as §1

COT1 = molecular target: T14, COT1 (Homo sapiens, UniProt P41279)
T14 construct: purchased Nanosyn (contract screening)
How it was run: as §1

Abl1 = molecular target: T15, Abl1 (Homo sapiens, UniProt P00519)
T15 construct: purchased Nanosyn (contract screening)
T15 sequence (P00519 whole entry): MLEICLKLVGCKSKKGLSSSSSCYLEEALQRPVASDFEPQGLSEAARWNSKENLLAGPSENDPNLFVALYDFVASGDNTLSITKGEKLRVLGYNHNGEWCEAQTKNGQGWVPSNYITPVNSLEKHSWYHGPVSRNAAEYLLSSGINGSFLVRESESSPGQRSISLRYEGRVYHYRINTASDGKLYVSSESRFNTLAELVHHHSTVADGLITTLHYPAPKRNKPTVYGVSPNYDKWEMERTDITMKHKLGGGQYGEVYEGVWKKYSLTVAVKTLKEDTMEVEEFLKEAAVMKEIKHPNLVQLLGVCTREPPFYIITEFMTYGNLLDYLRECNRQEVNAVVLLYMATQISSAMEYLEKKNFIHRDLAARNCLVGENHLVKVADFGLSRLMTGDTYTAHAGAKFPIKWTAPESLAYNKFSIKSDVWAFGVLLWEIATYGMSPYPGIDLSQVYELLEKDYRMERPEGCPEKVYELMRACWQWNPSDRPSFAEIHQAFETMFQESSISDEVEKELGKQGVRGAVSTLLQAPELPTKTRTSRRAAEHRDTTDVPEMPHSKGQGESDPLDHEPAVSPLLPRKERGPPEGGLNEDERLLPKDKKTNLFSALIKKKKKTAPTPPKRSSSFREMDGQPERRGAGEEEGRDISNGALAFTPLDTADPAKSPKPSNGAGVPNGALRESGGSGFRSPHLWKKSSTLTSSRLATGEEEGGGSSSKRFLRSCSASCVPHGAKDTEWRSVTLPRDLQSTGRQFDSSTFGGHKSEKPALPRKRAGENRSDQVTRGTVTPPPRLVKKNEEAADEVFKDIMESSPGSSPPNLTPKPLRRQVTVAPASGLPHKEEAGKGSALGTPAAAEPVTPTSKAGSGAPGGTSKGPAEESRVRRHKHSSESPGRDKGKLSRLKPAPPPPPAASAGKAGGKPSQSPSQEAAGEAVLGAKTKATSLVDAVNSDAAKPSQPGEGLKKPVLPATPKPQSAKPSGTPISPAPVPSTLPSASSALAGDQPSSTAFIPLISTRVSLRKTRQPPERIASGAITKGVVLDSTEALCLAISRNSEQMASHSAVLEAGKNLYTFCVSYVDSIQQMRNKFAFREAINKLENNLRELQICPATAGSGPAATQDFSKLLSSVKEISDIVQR
How it was run: as §1

| Structure (SMILES) | inhibition at 5 µM (LYNb) [%] | inhibition at 5 µM (HGK) [%] | inhibition at 5 µM (TAOK2) [%] | inhibition at 5 µM (YES) [%] | inhibition at 5 µM (MNK2) [%] | inhibition at 5 µM (KIT) [%] | inhibition at 5 µM (p38b) [%] | inhibition at 5 µM (KDR) [%] | inhibition at 5 µM (PDGFRa) [%] | inhibition at 5 µM (CSF1R) [%] | inhibition at 5 µM (LCK) [%] | inhibition at 5 µM (ERBB4) [%] | inhibition at 5 µM (ZAK) [%] | inhibition at 5 µM (COT1) [%] | inhibition at 5 µM (Abl1) [%] |
| --- | --- | --- | --- | --- | --- | --- | --- | --- | --- | --- | --- | --- | --- | --- | --- |
| Cc1ccc(NC(=O)c2cc(S(C)(=O)=O)n(-c3ccc(F)cc3)n2)cc1Nc1ccc2ncn(C)c(=O)c2c1 [Ex4, 1-(4-fluorophenyl)-N-(4-methyl-3-((3-methyl-4-oxo-3,4-dihydroquinazolin-6-yl)amino)phenyl)-5-(methylsulfonyl)-1H-pyrazole-3-carboxamide] | < 79 | < 79 | < 79 | < 79 | < 79 | 90 to 94 | < 79 | < 79 | < 79 | < 79 | < 79 | < 79 | < 79 | < 79 | < 79 |
| Cc1ccc(NC(=O)c2cc([S+](C)[O-])n(-c3ccc(F)cc3)n2)cc1Nc1ccc2ncn(C)c(=O)c2c1 (stereo not drawn) [Ex5, 1-(4-fluorophenyl)-N-(4-methyl-3-((3-methyl-4-oxo-3,4-dihydroquinazolin-6-yl)amino)phenyl)-5-(methylsulfinyl)-1H-pyrazole-3-carboxamide] | 90 to 94 | < 79 | < 79 | < 79 | < 79 | 80 to 89 | 80 to 89 | < 79 | < 79 | < 79 | 90 to 94 | < 79 | < 79 | < 79 | < 79 |
| Cc1ccc(NC(=O)c2cc([S+](C)[O-])n(-c3ccc(F)cc3)n2)cc1C#Cc1cnc2cccnn12 (stereo not drawn) [Ex6, 1-(4-fluorophenyl)-N-(3-(imidazo[1,2-b]pyridazin-3-ylethynyl)-4-methylphenyl)-5-(methylsulfinyl)-1H-pyrazole-3-carboxamide] | ≥ 95 | < 79 | < 79 | 80 to 89 | < 79 | 90 to 94 | 80 to 89 | < 79 | ≥ 95 | 90 to 94 | ≥ 95 | < 79 | < 79 | < 79 | < 79 |
| CNC(=O)c1cc(Oc2ccc(F)c(NC(=O)c3cc([S+](C)[O-])n(-c4ccc(F)cc4)n3)c2)ccn1 (stereo not drawn) [Ex7, 4-(4-fluoro-3-(1-(4-fluorophenyl)-5-(methylsulfinyl)-1H-pyrazole-3-carboxamido)phenoxy)-N-methylpicolinamide] | < 79 | < 79 | < 79 | < 79 | < 79 | < 79 | < 79 | < 79 | < 79 | < 79 | < 79 | < 79 | < 79 | < 79 | < 79 |
| CSc1cc(C(=O)Nc2cc(Oc3ccnc(C(=O)NC4CNC4)c3)ccc2F)nn1-c1ccc(F)cc1 [Ex8, N-(azetidin-3-yl)-4-(4-fluoro-3-(1-(4-fluorophenyl)-5-(methylthio)-1H-pyrazole-3-carboxamido)phenoxy)picolinamide] | < 79 | 80 to 89 | < 79 | < 79 | 80 to 89 | < 79 | < 79 | < 79 | < 79 | < 79 | < 79 | < 79 | < 79 | 90 to 94 | < 79 |

The remaining lines, values ahead:

| inhibition at 5 µM (LYNb) [%] | inhibition at 5 µM (HGK) [%] | inhibition at 5 µM (TAOK2) [%] | inhibition at 5 µM (YES) [%] | inhibition at 5 µM (MNK2) [%] | inhibition at 5 µM (KIT) [%] | inhibition at 5 µM (p38b) [%] | inhibition at 5 µM (KDR) [%] | inhibition at 5 µM (PDGFRa) [%] | inhibition at 5 µM (CSF1R) [%] | inhibition at 5 µM (LCK) [%] | inhibition at 5 µM (ERBB4) [%] | inhibition at 5 µM (ZAK) [%] | inhibition at 5 µM (COT1) [%] | inhibition at 5 µM (Abl1) [%] | Structure (SMILES) |
| --- | --- | --- | --- | --- | --- | --- | --- | --- | --- | --- | --- | --- | --- | --- | --- |
| < 79 | < 79 | ≥ 95 | < 79 | < 79 | < 79 | 80 to 89 | < 79 | < 79 | < 79 | < 79 | < 79 | < 79 | < 79 | < 79 | Cc1ccc(NC(=O)c2cc(S(C)(=O)=O)n(-c3ccc(F)cc3)n2)cc1-c1cc(OCCO)nc(N2CCOCC2)c1 [Ex9, 1-(4-fluorophenyl)-N-(3-(2-(2-hydroxyethoxy)-6-morpholinopyridin-4-yl)-4-methylphenyl)-5-(methylsulfonyl)-1H-pyrazole-3-carboxamide] |
| < 79 | < 79 | 90 to 94 | < 79 | < 79 | < 79 | < 79 | < 79 | < 79 | < 79 | < 79 | < 79 | < 79 | < 79 | < 79 | Cc1ccc(NC(=O)c2cc([S+](C)[O-])n(-c3ccc(F)cc3)n2)cc1-c1cc(OCCO)nc(N2CCOCC2)c1 (stereo not drawn) [Ex10, 1-(4-fluorophenyl)-N-(3-(2-(2-hydroxyethoxy)-6-morpholinopyridin-4-yl)-4-methylphenyl)-5-(methylsulfinyl)-1H-pyrazole-3-carboxamide] |
| < 79 | < 79 | < 79 | < 79 | < 79 | < 79 | < 79 | < 79 | < 79 | < 79 | < 79 | < 79 | < 79 | < 79 | < 79 | Cc1ccc(NC(=O)c2cc([S+](C)[O-])n(-c3ccc(F)cc3)n2)cc1-c1cc(N2CCOCC2)c(=O)n(C)c1 (stereo not drawn) [Ex11, 1-(4-fluorophenyl)-N-(4-methyl-3-(1-methyl-5-morpholino-6-oxo-1,6-dihydropyridin-3-yl)phenyl)-5-(methylsulfinyl)-1H-pyrazole-3-carboxamide] |
